Results: PubChem BioAssay AID2060484 (Molecular Pharmacology Branch, DTP, NCI, 2025)
pIC50: −log10 of the molar value.

Test system: SUM149PT spheroids with HUVEC/MSC, viability
Assay: Anticancer human tumor SUM149PT cell line growth inhibition [GQUAD];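 also: spheroids exposed to drugs for seven days before readout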;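 as to viability, T/C: percent viability relative to DMSO vehicle control taken as 100%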
Settings: for pIC50: curve of first compound; for viability, T/C: stronger effect = lower value
Outline: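 Tumor cells were grown as complex spheroids with HUVEC endothelial cells and mesenchymal stem cells as stroma. G-quadruplex stabilizers were combined with targeted agents over half-log dilutions from near the clinical Cmax, or from 10 microM.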

[1] = second compound 0.0316 µM, first compound 0.0316 µM
[2] = second compound 0.0316 µM, first compound 0.1 µM
[3] = second compound 0.0316 µM, first compound 0.316 µM
[4] = second compound 0.0316 µM, first compound 1 µM
[5] = second compound 0.0316 µM, first compound 3.16 µM
[6] = second compound 0.0316 µM, first compound 10 µM
[7] = second compound 0.1 µM, first compound 0.0316 µM
[8] = second compound 0.1 µM, first compound 0.1 µM
[9] = second compound 0.1 µM, first compound 0.316 µM
[10] = second compound 0.1 µM, first compound 1 µM
[11] = second compound 0.1 µM, first compound 3.16 µM
[12] = second compound 0.1 µM, first compound 10 µM
[13] = second compound 0.316 µM, first compound 0.0316 µM
[14] = second compound 0.316 µM, first compound 0.1 µM
[15] = second compound 0.316 µM, first compound 0.316 µM
[16] = second compound 0.316 µM, first compound 1 µM
[17] = second compound 0.316 µM, first compound 3.16 µM
[18] = second compound 0.316 µM, first compound 10 µM
[19] = second compound 1 µM, first compound 0.0316 µM
[20] = second compound 1 µM, first compound 0.1 µM
[21] = second compound 1 µM, first compound 0.316 µM
[22] = second compound 1 µM, first compound 1 µM
[23] = second compound 1 µM, first compound 3.16 µM
[24] = second compound 1 µM, first compound 10 µM
[25] = second compound 3.16 µM, first compound 0.0316 µM
[26] = second compound 3.16 µM, first compound 0.1 µM
[27] = second compound 3.16 µM, first compound 0.316 µM
[28] = second compound 3.16 µM, first compound 1 µM
[29] = second compound 3.16 µM, first compound 3.16 µM
[30] = second compound 3.16 µM, first compound 10 µM
[31] = second compound 10 µM, first compound 0.0316 µM
[32] = second compound 10 µM, first compound 0.1 µM
[33] = second compound 10 µM, first compound 0.316 µM
[34] = second compound 10 µM, first compound 1 µM
[35] = second compound 10 µM, first compound 3.16 µM
[36] = second compound 10 µM, first compound 10 µM

Question: C#Cc1c(F)ccc2cc(O)cc(-c3ncc4c(N5CC6CCC(C5)N6)nc(OCC56CCCN5CC(F)C6)nc4c3F)c12 (stereo unspecified) + Cc1cnc(CNC(=O)c2c(=O)c3ccc(N4CCCN(C)CC4)nc3n3c2sc2ccccc23)cn1 was tested. Which pIC50 (second compound 0.0316 µM) did it give?
Answer: 6.26

Question: What about the pIC50 (second compound 0.1 µM) of the same compound?
Answer: 6.61

Question: What about the pIC50 (second compound 0.316 µM) of the same compound?
Answer: 7.37

Question: What about the pIC50 (second compound 1 µM) of the same compound?
Answer: > 7.50

Question: What about the pIC50 (second compound 3.16 µM) of the same compound?
Answer: > 7.50

Question: And the pIC50 (second compound 10 µM)?
Answer: > 7.50

Question: And the viability, T/C [1]?
Answer: 90.1%

Question: And the viability, T/C [2]?
Answer: 65.5%

Question: What about the viability, T/C [3] of the same compound?
Answer: 66.2%

Question: What about the viability, T/C [4] of the same compound?
Answer: 35.1%

Question: What about the viability, T/C [5] of the same compound?
Answer: 36.6%

Question: And the viability, T/C [6]?
Answer: 29%

Question: What about the viability, T/C [7] of the same compound?
Answer: 51.6%

Question: And the viability, T/C [8]?
Answer: 61.4%

Question: What about the viability, T/C [9] of the same compound?
Answer: 45.2%

Question: And the viability, T/C [10]?
Answer: 38.9%

Question: What about the viability, T/C [11] of the same compound?
Answer: 30.7%

Question: What about the viability, T/C [12] of the same compound?
Answer: 25.5%

Question: What about the viability, T/C [13] of the same compound?
Answer: 48.6%

Question: What about the viability, T/C [14] of the same compound?
Answer: 52.2%

Question: What about the viability, T/C [15] of the same compound?
Answer: 37.9%

Question: And the viability, T/C [16]?
Answer: 34.1%

Question: What about the viability, T/C [17] of the same compound?
Answer: 28.1%

Question: And the viability, T/C [18]?
Answer: 22.9%

Question: And the viability, T/C [19]?
Answer: 34.1%

Question: And the viability, T/C [20]?
Answer: 38.6%

Question: And the viability, T/C [21]?
Answer: 33.4%

Question: What about the viability, T/C [22] of the same compound?
Answer: 27.1%

Question: What about the viability, T/C [23] of the same compound?
Answer: 24.2%

Question: What about the viability, T/C [24] of the same compound?
Answer: 20.1%

Question: What about the viability, T/C [25] of the same compound?
Answer: 35.5%

Question: What about the viability, T/C [26] of the same compound?
Answer: 32.1%

Question: What about the viability, T/C [27] of the same compound?
Answer: 31.4%

Question: What about the viability, T/C [28] of the same compound?
Answer: 25.6%

Question: And the viability, T/C [29]?
Answer: 23.3%

Question: And the viability, T/C [30]?
Answer: 19.6%

Question: And the viability, T/C [31]?
Answer: 0.13%

Question: And the viability, T/C [32]?
Answer: 2.68%

Question: What about the viability, T/C [33] of the same compound?
Answer: 11.3%

Question: And the viability, T/C [34]?
Answer: 0.63%

Question: What about the viability, T/C [35] of the same compound?
Answer: 2.15%

Question: What about the viability, T/C [36] of the same compound?
Answer: 0.92%

Question: What does the source list for COc1ccc([C@@H](O)c2cc(-c3ncnc4cc(N5CCOCC5)ccc34)c(F)cc2Cl)nn1 + CN(C)c1ccc(Nc2c3ccc(NC(=O)CCN4CCCC4)cc3nc3cc(NC(=O)CCN4CCCC4)ccc23)cc1?
Answer: pIC50 (second compound 0.0316 µM): 5.73; pIC50 (second compound 0.1 µM): 5.93; pIC50 (second compound 0.316 µM): 5.94; pIC50 (second compound 1 µM): 5.99; pIC50 (second compound 3.16 µM): 6.02; pIC50 (second compound 10 µM): 6.07; viability, T/C [1]: 103%; viability, T/C [2]: 86%; viability, T/C [3]: 73.1%; viability, T/C [4]: 63%; viability, T/C [5]: 38.2%; viability, T/C [6]: 32.1%; viability, T/C [7]: 89.1%; viability, T/C [8]: 92.2%; viability, T/C [9]: 80.6%; viability, T/C [10]: 52.4%; viability, T/C [11]: 34.3%; viability, T/C [12]: 28.8%; viability, T/C [13]: 88.1%; viability, T/C [14]: 87.4%; viability, T/C [15]: 71.5%; viability, T/C [16]: 53.7%; viability, T/C [17]: 34.3%; viability, T/C [18]: 29.1%; viability, T/C [19]: 91.5%; viability, T/C [20]: 82.8%; viability, T/C [21]: 77.2%; viability, T/C [22]: 50.3%; viability, T/C [23]: 31.8%; viability, T/C [24]: 29.2%; viability, T/C [25]: 82.6%; viability, T/C [26]: 80%; viability, T/C [27]: 75.3%; viability, T/C [28]: 46.8%; viability, T/C [29]: 33.7%; viability, T/C [30]: 22.9%; viability, T/C [31]: 79.9%; viability, T/C [32]: 78.8%; viability, T/C [33]: 73.1%; viability, T/C [34]: 44.2%; viability, T/C [35]: 31.4%; viability, T/C [36]: 20.7%

Question: How did the pIC50 (second compound 0.0316 µM) turn out when CC(C)(O)C1CCC(Nc2ccc3ncc(-c4cccc(C(F)(F)F)c4)n3n2)CC1 (stereo unspecified) + Cc1cnc(CNC(=O)c2c(=O)c3ccc(N4CCCN(C)CC4)nc3n3c2sc2ccccc23)cn1 was run?
Answer: 5.96

Question: What about the pIC50 (second compound 0.1 µM) of the same compound?
Answer: 6.16

Question: What about the pIC50 (second compound 0.316 µM) of the same compound?
Answer: 6.46

Question: And the pIC50 (second compound 1 µM)?
Answer: > 7.50

Question: What about the pIC50 (second compound 3.16 µM) of the same compound?
Answer: > 7.50

Question: And the pIC50 (second compound 10 µM)?
Answer: > 7.50

Question: And the viability, T/C [1]?
Answer: 72.8%

Question: What about the viability, T/C [2] of the same compound?
Answer: 69.2%

Question: And the viability, T/C [3]?
Answer: 58.2%

Question: And the viability, T/C [4]?
Answer: 57%

Question: What about the viability, T/C [5] of the same compound?
Answer: 32.6%

Question: And the viability, T/C [6]?
Answer: 29.5%

Question: What about the viability, T/C [7] of the same compound?
Answer: 57.3%

Question: What about the viability, T/C [8] of the same compound?
Answer: 63%

Question: And the viability, T/C [9]?
Answer: 67%

Question: And the viability, T/C [10]?
Answer: 43.9%

Question: What about the viability, T/C [11] of the same compound?
Answer: 26.2%

Question: And the viability, T/C [12]?
Answer: 24.3%

Question: And the viability, T/C [13]?
Answer: 52.9%

Question: What about the viability, T/C [14] of the same compound?
Answer: 50.8%

Question: What about the viability, T/C [15] of the same compound?
Answer: 47.9%

Question: And the viability, T/C [16]?
Answer: 44.6%

Question: What about the viability, T/C [17] of the same compound?
Answer: 22.5%

Question: And the viability, T/C [18]?
Answer: 25.8%

Question: What about the viability, T/C [19] of the same compound?
Answer: 43.7%

Question: And the viability, T/C [20]?
Answer: 43.6%

Question: What about the viability, T/C [21] of the same compound?
Answer: 37.9%

Question: What about the viability, T/C [22] of the same compound?
Answer: 37.3%

Question: What about the viability, T/C [23] of the same compound?
Answer: 18.9%

Question: What about the viability, T/C [24] of the same compound?
Answer: 17.4%

Question: What about the viability, T/C [25] of the same compound?
Answer: 32.9%

Question: And the viability, T/C [26]?
Answer: 34.7%

Question: What about the viability, T/C [27] of the same compound?
Answer: 32.5%

Question: What about the viability, T/C [28] of the same compound?
Answer: 32.1%

Question: And the viability, T/C [29]?
Answer: 18.5%

Question: And the viability, T/C [30]?
Answer: 1.21%

Question: And the viability, T/C [31]?
Answer: 0.27%

Question: And the viability, T/C [32]?
Answer: 2.83%

Question: What about the viability, T/C [33] of the same compound?
Answer: 2.02%

Question: And the viability, T/C [34]?
Answer: 1.99%

Question: And the viability, T/C [35]?
Answer: 2.14%

Question: And the viability, T/C [36]?
Answer: 1.18%
